Reference: PubChem BioAssay (NCI)
Values joined by “and” are separate entries in the source; they are usually repeats but may differ in a detail not shown here. Equal values may be shown once.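 Interpolation was linear, between the two tested concentrations surrounding the appropriate level; five concentrations were tested over 48 hours in 96-well plates. GI50: concentration for 50% inhibition of growth. The concentration for full growth arrest is given as TGI.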

Tests used:
Experiment in all cases: NCI-60 cell line screen, 48 h
OVCAR-4 ovarian = tested on: OVCAR-4 ovarian
HOP-62 NSCLC = tested on: HOP-62 NSCLC
NCI-H23 lung = tested on: NCI-H23 lung
SF-268 CNS = tested on: SF-268 CNS
SN12C renal = tested on: SN12C renal
SF-539 CNS = tested on: SF-539 CNS
MCF7 breast = tested on: MCF7 breast
IGROV1 ovarian = tested on: IGROV1 ovarian
HCC-2998 colon = tested on: HCC-2998 colon
RXF 393 renal = tested on: RXF 393 renal

SMILES	GI50 (OVCAR-4 ovarian)	TGI (OVCAR-4 ovarian)	TGI (HOP-62 NSCLC)	GI50 (NCI-H23 lung)	TGI (NCI-H23 lung)	GI50 (SF-268 CNS)	TGI (SF-268 CNS)	GI50 (SN12C renal)	TGI (SN12C renal)	GI50 (SF-539 CNS)	TGI (SF-539 CNS)	GI50 (MCF7 breast)	TGI (MCF7 breast)	TGI (IGROV1 ovarian)	GI50 (HCC-2998 colon)	TGI (HCC-2998 colon)	GI50 (RXF 393 renal)	TGI (RXF 393 renal)	GI50 (HOP-62 NSCLC)	GI50 (IGROV1 ovarian)
CC(=O)NC(CS)C(=O)O (stereo not given)	> 100 µM	> 100 µM	45500 µM	> 100 µM	> 100 µM and 62700 µM	> 100 µM	> 100 µM and 63800 µM	> 100 µM	> 100 µM	> 100 µM	> 100 µM	> 100 µM	> 100 µM and 71300 µM	16600 µM	> 100 µM	> 100 µM and 50800 µM	> 100 µM	> 100 µM and 69300 µM		
CCNC(=O)Oc1ccc(/C(=C(\C)c2ccc(Cl)cc2)c2ccc(OCCN(CC)CC)cc2)cc1	3.65 µM	17.3 µM	16.4 µM	7.92 µM	22.1 µM	5.99 µM	21 µM	4.42 µM	16.1 µM	1.78 µM	3.44 µM	1.13 µM	10.9 µM	15.3 µM	4.39 µM	16.3 µM	2.35 µM	9.84 µM	4.35 µM	3.66 µM
COc1cc(-c2cc(-c3cccs3)c(C#N)c(N3CCOCC3)n2)cc(OC)c1OC	> 44.6 µM	> 100 µM	> 100 µM	> 52.1 µM	> 100 µM	> 67.6 µM	> 100 µM	> 100 µM	> 100 µM	5.06 µM	> 100 µM	6.68 µM	> 100 µM	> 100 µM	21.7 µM	> 100 µM	3.47 µM	> 62.8 µM	> 58.7 µM	13.7 µM
CC(=O)OC1CC2C(C)(C)CCC[C@]2(C)C2=C1C(O)=C(C(C)C)C(=O)C2=O (stereo not given in full)	0.8 µM	7.07 µM	4.47 µM	0.704 µM	2.98 µM	0.902 µM	10.1 µM	0.801 µM	7.58 µM	0.723 µM	3.83 µM	1.1 µM	3.75 µM	5.52 µM	0.228 µM	0.546 µM	0.254 µM	1.02 µM	2.13 µM	1.53 µM
CS(=O)(=O)O[C@H]1C(=O)N(c2cc3c4ccccc4ccc3c3ccccc23)[C@@H]1c1ccccn1	1.62 µM	> 100 µM	> 100 µM	0.981 µM	> 100 µM	0.707 µM	> 100 µM	0.737 µM	> 100 µM	0.316 µM	2.96 µM	0.321 µM	> 100 µM	> 100 µM	1.25 µM	> 100 µM	0.242 µM	0.878 µM	0.612 µM	2.14 µM
CC(=O)N(C)c1cc(NCc2ccccc2)ccc1OCc1ccccc1		36.6 µM	> 100 µM		57.1 µM		30.4 µM		33.1 µM		32 µM		35.2 µM	30.5 µM		35 µM		28.6 µM		
C=C1C[C@@H](O)[C@@H](Br)C(C)(C)[C@]12CCC(C)(Br)C(Cl)C2 (stereo not given in full)	15.7 µM	> 50 µM and 32.9 µM	> 50 µM and 35.9 µM	18.7 µM	> 50 µM and 37.5 µM	19.1 µM	> 50 µM and 35.8 µM	16.5 µM	> 50 µM and 31.3 µM	16.9 µM	> 50 µM and 31.2 µM	16.8 µM	> 50 µM and 31.1 µM	> 50 µM and 36.1 µM	17.1 µM	> 50 µM and 30.8 µM	18.5 µM	> 50 µM and 37.2 µM	15.4 µM	18 µM
CCC1(OC(=O)CNC)C(=O)OCc2c1cc1n(c2=O)Cc2cc3ccccc3nc2-1 (stereo not given)		0.493 µM	< 0.0143 µM		0.11 µM		0.709 µM		0.849 µM		< 0.0203 µM		0.198 µM	2.21 µM		1.57 µM		0.115 µM		
C=C[C@H]1CN2CCc3c([nH]c4c([C@@H]5CCCN5C)c(O)ccc34)[C@@H]2C[C@@H]1C[C@H]1c2[nH]c3ccccc3c2CCN1C		3.2 µM	2.87 µM and 2.74 µM and 2.45 µM		3.63 µM and 3.71 µM		3.03 µM and 3.42 µM		3.13 µM and 3.39 µM	0.197 µM	3.14 µM and 0.41 µM and 3.09 µM		3.66 µM and 4.3 µM	2.67 µM and 2.75 µM	0.142 µM	0.297 µM		0.913 µM and 1.52 µM		
O=C(Nc1ccn(C2CC(I)C(COC(c3ccccc3)(c3ccccc3)c3ccccc3)O2)c(=O)n1)c1ccccc1 (stereo not given)		16.7 µM	21.2 µM		21.5 µM		17.9 µM		12.6 µM		18.4 µM		> 31.6 µM	21.5 µM		21.5 µM		13.2 µM		
